Data from PMC4872749, “EM23, a natural sesquiterpene lactone, targets thioredoxin reductase to activate JNK and cell death pathways in human cervical cancer cells” (Oncotarget, 2016).

Target: T1, thioredoxin reductase (TrxR) (Sus scrofa, UniProt Q9MYY8)
T1 construct: gene TXNRD1; TrxR purified from porcine brains
T1 sequence (Q9MYY8 1-499): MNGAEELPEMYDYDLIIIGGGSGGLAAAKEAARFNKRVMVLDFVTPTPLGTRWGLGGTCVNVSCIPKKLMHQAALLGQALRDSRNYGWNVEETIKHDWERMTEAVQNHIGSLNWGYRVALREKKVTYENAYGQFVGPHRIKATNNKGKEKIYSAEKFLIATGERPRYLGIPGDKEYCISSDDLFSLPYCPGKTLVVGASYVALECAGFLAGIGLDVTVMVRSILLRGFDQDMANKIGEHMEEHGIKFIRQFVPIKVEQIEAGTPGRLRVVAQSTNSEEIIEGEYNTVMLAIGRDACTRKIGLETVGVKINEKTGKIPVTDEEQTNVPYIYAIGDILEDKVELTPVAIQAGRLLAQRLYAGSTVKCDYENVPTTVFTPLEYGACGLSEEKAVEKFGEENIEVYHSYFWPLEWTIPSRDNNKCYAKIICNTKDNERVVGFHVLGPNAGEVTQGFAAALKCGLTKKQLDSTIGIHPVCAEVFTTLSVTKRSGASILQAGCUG
Experiment: DTNB reduction assay with purified NADPH-reduced TrxR; supported by BIAM labeling and TOF LC/MS of C-terminal tetrapeptide adduct
Assay type: biochemical

IC50: 7.8 µM
SMILES: C=C(C)C(=O)OC1CC(C)=CC2(OC)C=C(C)C(O2)C2OC(=O)C(=C)C12 (stereo not shown) [EM23]
